From patent US8889713B1, “N-substituted tetrahydroisoquinoline benzamides/benzene sulfonamides as anti-cancer agents” (Florida A&M University, priority 2013, dated 2014) come the findings set out here.

Molecules are shown by their SMILES. ≈ marks a conversion by molar mass, not a printed value.

Holding throughout (format): cell-based
Experiment [1] concerns MDA-MB-231 estrogen receptor-negative breast cancer cell line. As to the kind of experiment: […]-GLO luminescent cell viability assay, MDA-MB-231. As to conditions: Homo sapiens, MDA-MB-231, 72 h at 37° C., 5000 cells/well. The procedure: (§1) All the compounds were tested in the three cell lines. Different concentrations of compounds, ranging from about 0.01 nM to about 100,000 nM were delivered to […] cells per well, which were then incubated for three days at 37° C., followed by CTG assay.
(§2) In this assay, the number of viable cells in culture is determined based on the quantification of ATP present, which signals the presence of metabolically active cells. Damaged cells are not detected as the ATP leaked from these cells is quickly consumed by ATPases that are also released upon damage). The amount of ATP is determined using a system based on luciferase and D-luciferin resulting in light generation.
(§3) The cell lines were plated in 13, 96 well plates at a density of 5000 cells/well in total volumes of 50 μL in phenol-red free medium and incubated for overnight.
(§4) 25 μL of 40 nM estradiol should be added to all appropriate wells on the plate. […] 25 μL of stocks (containing the compounds to be tested, DMSO and phenol-red free medium) were added to cells and medium already on plate. 50 μL of medium were added to media wells, and 50 μL of mix (contain 32 mL DMSO+768 mL phenol-red free medium) to all vehicle control wells.
(§5) Luminescence results were read on TriLux Luminometer. The luminescent signal is proportional to the number of active cells present in culture. […] As a consequence, the number of metabolically active cells can be directly derived from the luminescent signal using a specific calibration curve. Data were expressed as percentage of untreated control (i.e. treatment value-blank/vehicle value blank), mean±SE for three replications.

The subject of a further experiment is Ishikawa cells. As to the kind of experiment: […]-GLO luminescent cell viability assay, Ishikawa. As to conditions: Homo sapiens, 72 h at 37° C., 5000 cells/well. How it is done:
as §1, §2, §3, §4, §5

Experiment [2] relates to MCF-7 estrogen receptor-positive breast cancer cells. As to the kind of experiment: […]-GLO luminescent cell viability assay, MCF-7. The conditions noted are these: Homo sapiens, MCF7, MCF-7, 72 h at 37° C., 5000 cells/well. How it is done:
as §1, §2, §3, §4, §5

In the case of `CCc1ccc(C(=O)NN2CCc3c(cccc3OC)C2)cc1` [Redda-EVK-I-062, 4-Ethyl-N-(5-methoxy-3,4-dihydroisoquinolin-2(1H)-yl)benzamide], the IC50 (usually the concentration at which inhibition is half-maximal) in experiment [1] turned out to be 10.5 µg/mL (≈ 33.7 µM); in the experiment on Ishikawa cells, 6.34 µg/mL (≈ 20.4 µM); in experiment [2], 7.38 µg/mL (≈ 23.8 µM).
In the same order, the values of `CCc1ccc(C(=O)NN2CCc3ccc(OC)cc3C2)cc1` [Redda-EVK-I-074, 4-Ethyl-N-(7-methoxy-3,4-dihydroisoquinolin-2(1H)-yl)benzamide] are 0.23 µg/mL (≈ 0.741 µM), 0.11 µg/mL (≈ 0.354 µM) and 0.25 µg/mL (≈ 0.805 µM).
As for `CCc1ccc(C(=O)NN2CCc3c(Br)ccc(Br)c3C2)cc1` [Redda-EVK-I-079, N-(5,8-Dibromo-3,4-dihydroisoquinolin-2(1H)-yl)-4-ethylbenzamide], the results for the concentration for half-maximal inhibition (IC50) (in experiment [1]; with Ishikawa cells; in experiment [2]) were 1.71 µg/mL (≈ 3.9 µM), 0.84 µg/mL (≈ 1.92 µM) and 2.34 µg/mL (≈ 5.34 µM), respectively.
For the compound `CCc1ccc(C(=O)NN2CCc3ccccc3C2)cc1` [Redda-GM-3-121, N-(3,4-Dihydroisoquinolin-2(1H)-yl)-4-ethylbenzamide], the half-inhibitory concentration (IC50) in experiment [1] is 0.37 µg/mL (≈ 1.32 µM); in the experiment with Ishikawa cells it was 0.01 µg/mL (≈ 0.0357 µM); in experiment [2], 0.43 µg/mL (≈ 1.53 µM).
Turning to `CCCc1ccc(C(=O)NN2CCc3ccccc3C2)cc1` [Redda-GM-3-122, N-(3,4-Dihydroxyisoquinolin-2(1H)-yl)-4-propylbenzamide], the IC50 amounted to 3.26 µg/mL (≈ 11.1 µM) in experiment [1], 0.75 µg/mL (≈ 2.55 µM) in the experiment with Ishikawa cells and 3.71 µg/mL (≈ 12.6 µM) in experiment [2].
For the compound `O=C(NN1CCc2ccccc2C1)c1ccc(Br)cc1` [Redda-GM-3-135, 4-Bromo-N-(3,4-dihydroisoquinolin-2(1H)-yl)benzamide], the half-maximal inhibitory concentration (IC50) in experiment [1] came to 4.34 µg/mL (≈ 13.1 µM); with Ishikawa cells, 0.02 µg/mL (≈ 0.0604 µM); in experiment [2], 0.7 µg/mL (≈ 2.11 µM).
In the same order, the values of `O=C(NN1CCc2ccccc2C1)c1ccc(C(F)(F)F)cc1` [Redda-GM-3-143, N-(3,4-Dihydroisoquinolin-2-(1H)-yl)-4-(trifluoromethyl)benzamide] are 4.85 µg/mL (≈ 15.1 µM), 0.5 µg/mL (≈ 1.56 µM) and 3.15 µg/mL (≈ 9.83 µM).
For the compound `CCCCc1ccc(C(=O)NN2CCc3ccccc3C2)cc1` [Redda-GM-3-156, 4-Butyl-N-(3,4-dihydrozyisoquinolin-2(1H)-yl)benzamide], the half-maximal inhibitory concentration (IC50) was found to be 7.03 µg/mL (≈ 22.8 µM) in experiment [1], 0.96 µg/mL (≈ 3.11 µM) in the experiment with Ishikawa cells and 3.05 µg/mL (≈ 9.89 µM) in experiment [2].
On to `O=C(NN1CCc2ccccc2C1)c1nc2ccccc2s1` [Redda-GM-3-177, N-(3,4-Dihydroisoquinolin-2-(1H)-yl)benzo[d]thiazole-2-carboxamide], for which the concentration for half-maximal inhibition (IC50) in experiment [1] was found to be 13.1 µg/mL (≈ 42.4 µM); in the experiment with Ishikawa cells it was 8.98 µg/mL (≈ 29 µM); in experiment [2], 15 µg/mL (≈ 48.5 µM).
Consider `CC(C)(C)c1ccc(C(=O)NN2CCc3ccc(O)cc3C2)cc1` [Redda-GM-4-40, 4-(tert-Butyl)-N-(7-hydroxy-3,4-dihydroisoquinolin-2(1H)-yl)benzamide], for which the IC50 in experiment [1] amounted to 4.7 µg/mL (≈ 14.5 µM); in the experiment with Ishikawa cells, 0.95 µg/mL (≈ 2.93 µM); in experiment [2], 2.3 µg/mL (≈ 7.09 µM).
As to `CCc1ccc(C(=O)NN2CCc3ccc(O)cc3C2)cc1` [Redda-GM-4-53, 4-Ethyl-N-(7-hydroxy-3,4-dihydroisoquinolin-2-(1H)-yl)benzamide], the IC50 was found to be 0.13 µg/mL (≈ 0.439 µM) in experiment [1], 0.08 µg/mL (≈ 0.27 µM) in the experiment with Ishikawa cells and 0.2 µg/mL (≈ 0.675 µM) in experiment [2].
On to `CCc1ccc(C(=O)NN2CCc3c(Br)cccc3C2)cc1` [Redda-GM-4-62, N-(5-Bromo-3,4-dihyroisoquinolin-2(1H)-yl)-4-ethylbenzamide], for which the half-maximal inhibitory concentration (IC50) in experiment [1] worked out at 6.01 µg/mL (≈ 16.7 µM); in the experiment on Ishikawa cells, 1.15 µg/mL (≈ 3.2 µM); in experiment [2] it was 3.5 µg/mL (≈ 9.74 µM).
